Laboratory results taken from patent US20050112573A1, “Method of detecting toxic substance” (priority 2001, published 2005).

Test system: yeast genes (level of expressed mRNA)
Test: DNA chip analysis of expressed mRNA of yeast genes after 2 h culture with a toxic chemical substance
Format: cell-based, Saccharomyces cerevisiae S288C
Settings: for The level of expressed mRNA in the presence of chemical substance/ (ratio to absence of chemical substance): stress protein genes, DNA chip
Procedure, shortened: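 S. cerevisiae S288C grown at 25° C in YPD; toxicant added at log phase at growth-inhibitory, non-lethal levels for 2 h, untreated cells as control. Poly(A) mRNA reverse-transcribed with Cy3/Cy5-dUTP, hybridized to whole-genome chip at 65° C >12 h; value is fluorescence ratio versus untreated.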

## C[S+](C)[O-] [(15), dimethylsulfoxide]
Gene YOR267C
  The level of expressed mRNA in the presence of chemical substance/absence: YOR267C: 1.3
Gene YOR325W
  The level of expressed mRNA in the presence of chemical substance/absence: YOR325W: 0.7
Gene YOR336W
  level of expressed mRNA in the presence of chemical substance/in its absence: 0.6
Gene YOR344C
  level of expressed mRNA in the presence of chemical substance/in its absence: 0.7
Gene YOR347C
  level of expressed mRNA in the presence of chemical substance/in its absence: 2.0
Gene YPL005W
  The level of expressed mRNA in the presence of chemical substance/absence: YPL005W: 1.2
Gene YPL017C
  level of expressed mRNA in the presence of chemical substance/in its absence: 1.0
Gene YPL107W, DNA chip fluorescence ratio to control without chemical, 2 hours culture with chemical, growth-inhibiting non-lethal concentration
  The level of expressed mRNA in the presence of chemical substance / the level in the absence of chemical substance, yeast gene YPL107W: 0.7
Gene YPL138C, DNA chip fluorescence ratio to control without chemical, 2 hours culture with chemical, growth-inhibiting non-lethal concentration
  The level of expressed mRNA in the presence of chemical substance / the level in the absence of chemical substance, yeast gene YPL138C: 2.7
Gene YPL150W
  The level of expressed mRNA in the presence of chemical substance/absence: YPL150W: 1.1
Gene YPL151C
  The level of expressed mRNA in the presence of chemical substance/absence: YPL151C: 1.8
Gene YPL152W
  The level of expressed mRNA in the presence of chemical substance/absence: YPL152W: 2.3
Gene YPL168W
  The level of expressed mRNA in the presence of chemical substance/absence: YPL168W: 0.8
Gene YPL180W
  The level of expressed mRNA in the presence of chemical substance/absence: YPL180W: 0.7
Gene YPL188W
  The level of expressed mRNA in the presence of chemical substance/absence: YPL188W: 0.8
Gene YPL221W
  The level of expressed mRNA in the presence of chemical substance/absence: YPL221W: 1.0
Gene YPL225W
  The level of expressed mRNA in the presence of chemical substance/absence: YPL225W: 0.9
Gene YPL249C
  The level of expressed mRNA in the presence of chemical substance/absence: YPL249C: 1.0
Gene YPL260W
  The level of expressed mRNA in the presence of chemical substance/absence: YPL260W: 1.3
Gene YPL265W
  level of expressed mRNA in the presence of chemical substance/in its absence: 1.2
Gene YPR006C
  level of expressed mRNA in the presence of chemical substance/in its absence: 0.7
Gene YPR026W
  level of expressed mRNA in the presence of chemical substance/in its absence: 3.1
Gene YPR049C
  The level of expressed mRNA in the presence of chemical substance/absence: YPR049C: 1.5
Gene YPR061C
  The level of expressed mRNA in the presence of chemical substance/absence: YPR061C: 0.4
Gene YPR093C
  The level of expressed mRNA in the presence of chemical substance/absence: YPR093C: 0.8
Gene YPR146C
  The level of expressed mRNA in the presence of chemical substance/absence: YPR146C: 0.9
Gene YPR148C
  The level of expressed mRNA in the presence of chemical substance/absence: YPR148C: 1.7
Gene YPR150W
  The level of expressed mRNA in the presence of chemical substance/absence: YPR150W: 0.9
Gene YPR158W
  The level of expressed mRNA in the presence of chemical substance/absence: YPR158W: 0.9
Gene YPR169W
  The level of expressed mRNA in the presence of chemical substance/absence: YPR169W: 0.9
Gene YPR172W
  The level of expressed mRNA in the presence of chemical substance/absence: YPR172W: 1.5
Gene YPR174C
  The level of expressed mRNA in the presence of chemical substance/absence: YPR174C: 1.2
Yeast gene YAR010C
  The level of expressed mRNA in the presence of chemical substance/The level of expressed mRNA in the absence of chemical substance: 1.8
Yeast gene YBL005W-A
  The level of expressed mRNA in the presence of chemical substance/The level of expressed mRNA in the absence of chemical substance: 0.9
Yeast gene YBL038W, mitochondria-located protein genes, 2 h culture with chemical
  The level of expressed mRNA in the presence of chemical substance/ (ratio to absence), gene YBL038W: 0.7
Yeast gene YBL041W
  The level of expressed mRNA in the presence of chemical substance/The level of expressed mRNA in the absence of chemical substance: 1.3
Yeast gene YBL043W
  The level of expressed mRNA in the presence of chemical substance/The level of expressed mRNA in the absence of chemical substance: 1.8
Yeast gene YBL078C
  The level of expressed mRNA in the presence of chemical substance/The level of expressed mRNA in the absence of chemical substance: 2.5
Yeast gene YBL093C
  The level of expressed mRNA in the presence of chemical substance/ (ratio to absence of chemical substance): 0.5
Yeast gene YBR036C, ratio of DNA chip fluorescence intensity to that without chemical substance
  The level of expressed mRNA in the presence of chemical substance/ (in its absence), gene YBR036C: 1.5
Yeast gene YBR044C
  The level of expressed mRNA in the presence of chemical substance/ (ratio to absence of chemical substance): 0.9
Yeast gene YBR122C, mitochondria-located protein genes, 2 h culture with chemical
  The level of expressed mRNA in the presence of chemical substance/ (ratio to absence), gene YBR122C: 0.7
Yeast gene YBR214W
  The level of expressed mRNA in the presence of chemical substance/The level of expressed mRNA in the absence of chemical substance: 5.1
Yeast gene YBR251W, mitochondria-located protein genes, 2 h culture with chemical
  The level of expressed mRNA in the presence of chemical substance/ (ratio to absence), gene YBR251W: 0.8
Yeast gene YBR298C, ratio of DNA chip fluorescence intensity to that without chemical substance
  The level of expressed mRNA in the presence of chemical substance/ (in its absence), gene YBR298C: 0.2
Yeast gene YCL020W
  The level of expressed mRNA in the presence of chemical substance/The level of expressed mRNA in the absence of chemical substance: 2.5
Yeast gene YCL027W
  The level of expressed mRNA in the presence of chemical substance/The level of expressed mRNA in the absence of chemical substance: 3.6
Yeast gene YCR004C
  The level of expressed mRNA in the presence of chemical substance/The level of expressed mRNA in the absence of chemical substance: 0.8
Yeast gene YCR046C, mitochondria-located protein genes, 2 h culture with chemical
  The level of expressed mRNA in the presence of chemical substance/ (ratio to absence), gene YCR046C: 1.4
Yeast gene YCR071C
  The level of expressed mRNA in the presence of chemical substance/The level of expressed mRNA in the absence of chemical substance: 1.1
Yeast gene YCR083W, mitochondria-located protein genes, 2 h culture with chemical
  The level of expressed mRNA in the presence of chemical substance/ (ratio to absence), gene YCR083W: 1.0
Yeast gene YCR083W
  The level of expressed mRNA in the presence of chemical substance/ (ratio to absence of chemical substance): 1.0
Yeast gene YCR088W
  The level of expressed mRNA in the presence of chemical substance/The level of expressed mRNA in the absence of chemical substance: 2.8
Yeast gene YDL008W
  The level of expressed mRNA in the presence of chemical substance/The level of expressed mRNA in the absence of chemical substance: 0.7
Yeast gene YDL067C, energy system protein genes, 2 h culture with the chemical, ratio to control without chemical
  The level of expressed mRNA in the presence of chemical substance/ in its absence, gene YDL067C: 0.7
Yeast gene YDL067C, mitochondria-located protein genes, 2 h culture with chemical
  The level of expressed mRNA in the presence of chemical substance/ (ratio to absence), gene YDL067C: 0.7
Yeast gene YDL078C, energy system protein genes, 2 h culture with the chemical, ratio to control without chemical
  The level of expressed mRNA in the presence of chemical substance/ in its absence, gene YDL078C: 0.5
